Data: patent US5716929A (Vertex Pharmaceuticals, Inc., priority 1995, dated 1998)
Square brackets hold non-standard residues; d marks the D form. Peptide text beside a SMILES is read from it. * marks the point of attachment. ξ: configuration not given here. Hyp = O=C(O)[C@@H]1C[C@@H](O)CN1; Tic = O=C(O)[C@@H]1Cc2ccccc2CN1; ξD = NC(CC(=O)O)C(=O)O; Allyl = C=CC*

target: T1, interleukin-1β converting enzyme (ICE) (Homo sapiens, UniProt P29466); assay: Enzyme assay with UV-visible substrate (Succinyl-Tyr-Val-Ala-Asp-pNitroanilide); type: biochemical; conditions: Example 2 table
T1 sequence (P29466 120-297 limits assumed): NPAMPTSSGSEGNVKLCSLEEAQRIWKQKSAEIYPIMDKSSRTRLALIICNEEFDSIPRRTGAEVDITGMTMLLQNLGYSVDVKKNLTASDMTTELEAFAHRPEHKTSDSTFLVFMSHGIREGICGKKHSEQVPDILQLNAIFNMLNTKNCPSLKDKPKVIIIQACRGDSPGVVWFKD
T1 sequence (P29466 317-404 limits assumed): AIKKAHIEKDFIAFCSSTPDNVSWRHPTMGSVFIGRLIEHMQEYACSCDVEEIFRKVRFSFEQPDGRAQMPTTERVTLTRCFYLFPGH
Description: 1. Enzyme assay with UV-visible substrate
This assay is run using an Succinyl-Tyr-Val-Ala-Asp-pNitroanilide substrate (SEQ ID NO: 1). Synthesis of analogous substrates is described by L. A. Reiter (Int. J. Peptide Protein Res. 43, 87-96 (1994)). The assay mixture contains: […]
The visible ICE assay is run in a 96-well microtiter plate. Buffer, ICE and DMSO (if inhibitor is present) are added to the wells in the order listed. The components are left to incubate at room temperature for 15 minutes starting at the time that all components are present in all wells. The microtiter plate reader is set to incubate at 37° C. After the 15 minute incubation, substrate is added directly to the wells and the reaction is monitored by following the release of the chromophore (pNA) at 405-603 nm at 37° C. for 20 minutes. A linear fit of the data is performed and the rate is calculated in mOD/min. DMSO is only present during experiments involving inhibitors, buffer is used to make up the volume to 100 μl in the other experiments.
For determination of enzyme inhibition constants (Ki) or the mode of inhibition (competitive, uncompetitive or noncompetitive), the rate data determined in the enzyme assays at varying inhibitor concentrations are computer-fit to standard enzyme kinetic equations (see I. H. Segel, Enzyme Kinetics, Wiley-Interscience, 1975).

Q: How did the Ki turn out when CC(=O)N[C@@H](Cc1ccc(O)cc1)C(=O)N[C@H](C(=O)N1Cc2ccccc2C[C@H]1C(=O)NC(C=O)CC(=O)O)C(C)C (stereo partly drawn) [L, N-[2-(N-Acetyl-tyrosinyl-valinyl)-(S)-1,2,3,4-tetrahydroisoquinoline-3-carbonyl]-3-amino-oxobutanoic acid] (Ac-YV[Tic][ξD]-aldehyde) was run?
A: The Ki was 14 nM.

Q: How did the Ki turn out when C[C@H](NC(=O)c1ncc(CCc2ccccc2)[nH]1)C(=O)N[C@H](C=O)CC(=O)O [Compound 20c, (3S)3-{N-[4-(2-Phenylethyl)imidazole-2-carbonyl]-L-alaninyl}amino-4-oxobutanoic acid] was run?
A: The Ki was 950 nM.

Q: With C[C@H](NC(=O)c1cnc(CCc2ccccc2)[nH]1)C(=O)N[C@H](C=O)CC(=O)O [Compound 33a, (3S)3-{N-[2-(2-Phenylethyl)imidazole-4-carbonyl]-L-alaninyl}amino-4-oxobutanoic acid] as the compound, how does the Ki read?
A: Its Ki is 5500 nM.

Q: For C[C@H](NC(=O)c1cnc(Cc2ccccc2)[nH]1)C(=O)N[C@H](C=O)CC(=O)O [Compound 33c, (3S)3-[N-(2-Benzylimidazole-4-carbonyl)-L-alaninyl]amino-4-oxobutanoic acid], which Ki is on record?
A: Its Ki is 8600 nM.

Q: Which Ki does the source give for C[C@H](NC(=O)c1ccc[nH]1)C(=O)N[C@H](C=O)CC(=O)O [Compound 36a, (3S)3-[N-(Pyrrole-2-carbonyl)-L-alaninyl]amino-4-oxobutanoic acid] here?
A: Its Ki is 4700 nM.

Q: For C[C@H](NC(=O)c1ncc[nH]1)C(=O)N[C@H](C=O)CC(=O)O [Compound 20a, (3S)3-[N-(Imidazole-2-carbonyl)-L-alaninyl]amino-4-oxobutanoic acid], which Ki is on record?
A: The Ki was 3200 nM.

same assay, conditions: Example 4 table

Q: For CC(C)[C@H](NC(=O)OCc1ccccc1)C(=O)N[C@@H](C)C(=O)N[C@H](CC(=O)O)C(=O)COCc1c(Cl)cccc1Cl (mixture of isomers) [Compound 84a, (R,S) N-[N-(Phenylmethyloxy)carbonyl-valinyl-alaninyl]-3-amino-5-(2,6-dichlorophenylmethyloxy)-4-oxo-pentanoic acid], which Ki is on record?
A: Its Ki is 100 nM.

Q: With O=C[C@H](CC(=O)O)NC(=O)C1CCc2ncc(NC(=O)c3ccccc3)c(=O)n21 (single isomer, unassigned) [Compound 7b] as the compound, how does the Ki read?
A: Its Ki is 1200 nM.

Q: With CC(=O)N[C@@H](Cc1ccc(O)cc1)C(=O)N[C@H](C(=O)N[C@@H](C)C(=O)N[C@H](CC(=O)O)C(=O)COCc1c(Cl)cccc1Cl)C(C)C (mixture of isomers) [Compound 84b, (R,S)N-[N-(Acetyl)tyrosinyl-valinyl-alaninyl]-3-amino-5-(2,6-dichlorophenylmethyloxy)-4-oxo-pentanoic acid] as the compound, how does the Ki read?
A: The Ki was 19 nM.

Q: For O=C[C@H](CC(=O)O)NC(=O)C1CCc2ncc(NC(=O)c3ccccc3)c(=O)n21 (single isomer, unassigned) [Compound 7a], which Ki is on record?
A: The Ki was 35000 nM.

Q: For O=C[C@H](CC(=O)O)NC(=O)[C@@H]1CCCN1C(=O)c1nc(CCCc2ccccc2)c[nH]1 [Compound 21d, (3S) 3-{N-[4-(3-Phenylpropyl)imidazole-2-carbonyl]-L-prolinyl}amino-4-oxo-butanoic acid], which Ki is on record?
A: The Ki was 240 nM.

Q: For O=C[C@H](CC(=O)O)NC(=O)[C@@H]1CCCN1C(=O)c1nc(CCCc2ccc(O)cc2)c[nH]1 [Compound 21f, (3S)3-{N-[4-[3-(4-Hydroxyphenyl)propyl]imidazole-2-carbonyl]-L-prolinyl}amino-4-oxobutanoic acid], which Ki is on record?
A: Its Ki is 170 nM.

Q: COc1ccc(CCCc2c[nH]c(C(=O)N3CCC[C@H]3C(=O)N[C@H](C=O)CC(=O)O)n2)cc1 [Compound 21e, (3S)3-{N-[4-[3-(4-Methoxyphenyl)propyl]imidazole-2-carbonyl]-L-prolinyl}amino-4-oxobutanoic acid] was tested. Which Ki did it give?
A: Its Ki is 220 nM.

Q: How did the Ki turn out when O=C[C@H](CC(=O)O)NC(=O)[C@@H]1CCCN1C(=O)c1nc(CCc2ccccc2)c[nH]1 [Compound 21c, (3S)3{N-[4-(2-Phenylethyl)imidazole-2-carbonyl]-L-prolinyl}amino-4-oxobutanoic acid] was run?
A: The Ki was 640 nM.

Q: Which Ki does the source give for O=C[C@H](CC(=O)O)NC(=O)[C@@H]1CCCN1C(=O)c1cc2ccccc2[nH]1 [Compound 39, (3S) 3-[1-(Indole-2-carbonyl)-L-prolinyl]amino-4-oxobutanoic acid] here?
A: The Ki was 2500 nM.

Q: Which Ki does the source give for C[C@H](NC(=O)c1nc(Cc2ccccc2)c[nH]1)C(=O)N[C@H](C=O)CC(=O)O [Compound 20b, (3S)3-[N-(4-Benzylimidazole-2-carbonyl)-L-alaninyl]amino-4-oxobutanoic acid] here?
A: Its Ki is 850 nM.

Q: For CC(C(=O)N[C@H](C=O)CC(=O)O)n1c(Cc2ccccc2)ccc(NC(=O)CCc2ccccc2)c1=O (stereo partly drawn) [Compound 54h, 3(S), N(2(R,S))3-(2-(6-Benzyl-1,2-dihydro-2-oxo-3-(3-phenylpropionyl)amino-1-pyridyl)propionylamino)-4-oxobutanoic acid], which Ki is on record?
A: The Ki was 970 nM.

Q: Which Ki does the source give for C[C@H](NC(=O)c1ccc(Cc2ccccc2)[nH]1)C(=O)N[C@H](C=O)CC(=O)O [Compound 36b, (3S)3-[N-(5-Benzylpyrrole-2-carbonyl)-L-alaninyl]amino-4-oxobutanoic acid] here?
A: The Ki was 800 nM.

Q: C[C@H](NC(=O)c1nc(CCCc2ccccc2)c[nH]1)C(=O)N[C@H](C=O)CC(=O)O [Compound 20d, (3S)3-{N-[4-(3-Phenylpropyl)imidazole-2-carbonyl]-L-alaninyl}amino-4-oxo-butanoic acid] was tested. Which Ki did it give?
A: Its Ki is 100 nM.

Q: How did the Ki turn out when Cc1c[nH]c2c(=O)n(CC(=O)N[C@H](C=O)CC(=O)O)cnc12 [Compound 43, (3S)-3-[2-(3,5-Dihydro-7-methyl-4-oxo-4H-pyrrolo[3,2-d]pyrimidin-3-yl)-1-oxo-ethylamino]-4-oxobutanoic acid] was run?
A: The Ki was 20000 nM.

same assay, conditions: Example 6 table

Q: For O=C(O)C[C@H](NC(=O)Cn1c(Cc2ccccc2)ccc(NC(=O)CCc2ccccc2)c1=O)C(=O)CO [Compound 88, N-2-(6-Benzyl-1,2-dihydro-2-oxo-3-(3-phenylpropionyl)amino-1-pyridyl)acetyl-3(S)-amino-5-hydroxy-4-oxo-pentanoic acid], which Ki is on record?
A: The Ki was 900 nM.

Q: How did the Ki turn out when CC(=O)N[C@@H](Cc1ccc(O)cc1)C(=O)N[C@H](C(=O)N[C@@H](C)C(=O)N[C@@H](CC(=O)O)C(=O)COCc1ccccc1Cl)C(C)C [Compound 89, N-Acetyl-(S)-tyrosinyl-(S)-valinyl-(S)-alaninyl-3(S)-amino-5-(2-chlorobenzyloxy)-4-oxo-pentanoic acid] was run?
A: Its Ki is 18 nM.

Q: How did the Ki turn out when O=CC(CC(=O)O)NC(=O)CN1C(=O)C(NC(=O)OCc2ccccc2)CN(Cc2ccccc2)C(=O)C1Cc1ccccc1 (stereo not shown) [Compound 121, 3-{2-[2,4-Dibenzyl-3,7-dioxo-6-(N-benzyloxycarbonylamino)-[1,4]diazepan-1-yl]-acetylamino}-4-oxo-butyric acid] was run?
A: The Ki was 4300 nM.

Q: Which Ki does the source give for O=C[C@H](CC(=O)O)NC(=O)CN1C(=O)[C@@H](NC(=O)CCc2ccccc2)CN(C(=O)CCc2ccccc2)c2ccccc21 [Compound 106b] here?
A: The Ki was 200 nM.

Q: With C=CCO[C@@H]1C[C@@H](C(=O)N[C@H](C=O)CC(=O)O)N(C(=O)[C@@H](NC(=O)[C@H](Cc2ccc(O)cc2)NC(C)=O)C(C)C)C1 [Compound 85, N-(N-Acetyl-tyrosinyl-valinyl-(4 (R)-allyloxyprolinyl))-3(S)-amino-4-oxobutanoic acid] (Ac-YV[Hyp](Allyl)D-aldehyde) as the compound, how does the Ki read?
A: The Ki was 3.5 nM.

Q: How did the Ki turn out when CC(C(=O)N[C@H](C=O)CC(=O)O)N1CCN(C(=O)CCc2ccccc2)C[C@H](NC(=O)CCc2ccccc2)C1=O (mixture of isomers) [Compound 115, 4-Oxo-3(S)-{2(R,S)-[7-oxo-4-(3-phenyl-propionyl)-6(S)-(3-phenyl-propionylamino)-[1,4]diazepan-1-yl]propionylamino}-butyric acid] was run?
A: Its Ki is 345 nM.

Q: Which Ki does the source give for COc1ccc(CCCc2cnc(C(=O)N3C[C@H](Oc4ccccc4)C[C@H]3C(=O)N[C@H](C=O)CC(=O)O)[nH]2)cc1 [Compound 22e, 3(S)-[(1-{5-[3-(4-Methoxyphenyl)propyl]-1H-imidazole-2-carbonyl}-4(R)-phenoxypyrrolidine-2(S)-carbonyl)amino]-4-oxobutanoic acid] here?
A: Its Ki is 190 nM.

Q: With O=C(O)C[C@H](NC(=O)CN1C(=O)[C@@H](NC(=O)CCc2ccccc2)CN(C(=O)CCc2ccccc2)c2ccccc21)C(=O)c1ncc(-c2c(Cl)cccc2Cl)o1 [Compound 108c, 4-[5-(2,6-Dichlorophenyl)oxazol-2-yl]-4-oxo-3(S)-{2-[2-oxo-5-(3-phenylpropionyl)-3(S)-(3-phenylpropionylamino)-2,3,4,5-tetrahydrobenzo[b][1,4]diazepin-1-yl]-acetylamino}butyric acid] as the compound, how does the Ki read?
A: The Ki was 430 nM.
